Experimental data: publication PMC6270326, “The Novel [4,5-e][1,3]Diazepine-4,8-dione and Acyclic Carbamoyl Imino-Ureido Derivatives of Imidazole: Synthesis, Anti-Viral and Anti-Tumor Activity Evaluations” (Molecules, 2013)

Columns and labels:
[1] = tested on: BJ (normal diploid human fibroblasts); assay: Proliferation assay (MTT), BJ normal fibroblasts; format: cell-based; details: for IC50: Fibroblast, BJ normal human skin fibroblasts, 72 h incubation, MTT, read-out: Cell growth IC50, BJ; for Cytotoxicity on human normal fibroblasts (BJ): in words
Description: (§1) The cell lines HeLa (cervical carcinoma), SW620 (colorectal adenocarcinoma, metastatic), MCF-7 (breast epithelial adenocarcinoma, metastatic), HepG2 (hepatocellular carcinoma) and BJ (normal diploid human fibroblasts), were cultured as monolayers and maintained in Dulbecco’s modified Eagle medium (DMEM) supplemented with 10% fetal bovine serum (FBS), 2 mM L-glutamine, 100 U/mL penicillin and 100 μg/mL streptomycin in a humidified atmosphere with 5% CO2 at 37 °C.
(§2) The panel cell lines were inoculated onto a series of standard 96-well microtiter plates on day 0, at 3,000 to 5,000 cells per well according to the doubling times of specific cell line. Test agents were then added in 10-fold dilutions (0,01 to 100 µM) and incubated for further 72 h. Working dilutions were freshly prepared on the day of testing in the growth medium. The solvent (DMSO) was also tested for eventual inhibitory activity by adjusting its concentration to be the same as in the working concentrations (DMSO concentration never exceeded 0.1%). After 72 h of incubation, the cell growth rate was evaluated by performing the MTT assay: experimentally determined absorbance values were transformed into a cell percentage growth (PG) using the formulas proposed by NIH and described previously. This method directly relies on control of untreated cells at the day of substances addition because it compares the growth of treated cells with the growth of untreated cells in control wells on the same plate—the results are therefore a percentile difference from the calculated expected value. […] If, however, all of the tested concentrations produce PGs exceeding the respective reference level of effect (e.g., PG value of 50) for a given cell line, the highest tested concentration is assigned as the default value (in the screening data report that default value is preceded by a “>” sign). Each test point was performed in quadruplicate in three individual experiments. The results were statistically analyzed (ANOVA, Tukey post-hoc test at p < 0.05). Finally, the effects of the tested substances were evaluated by plotting the mean percentage growth for each cell type in comparison to control on dose response graphs.

[2] = tested on: MCF-7 (breast epithelial adenocarcinoma, metastatic); assay: Proliferation assay (MTT), MCF-7; format: cell-based; details: Homo sapiens, MCF7, 72 h incubation, read-out: Tumor cell growth IC50, MCF-7
Description: as §1, §2

[3] = tested on: HeLa (cervical carcinoma); assay: Proliferation assay (MTT), HeLa; format: cell-based; details: Homo sapiens, 72 h incubation, read-out: Tumor cell growth IC50, HeLa
Description: as §1, §2

[4] = tested on: HepG2 (hepatocellular carcinoma); assay: Proliferation assay (MTT), HepG2; format: cell-based; details: Homo sapiens, 72 h incubation, read-out: Tumor cell growth IC50, HepG2
Description: as §1, §2

[5] = tested on: SW620 (colorectal adenocarcinoma, metastatic); assay: Proliferation assay (MTT), SW620; format: cell-based; details: Homo sapiens, SW-620, 72 h incubation, read-out: Tumor cell growth IC50, SW620
Description: as §1, §2

[6] = tested on: HeLa, SW620, MCF-7, HepG2 and BJ cell lines; assay: Proliferation assay (MTT), whole panel of cell lines; format: cell-based, human; details: in words
Description: as §1
The panel cell lines were inoculated onto a series of standard 96-well microtiter plates on day 0, at 3,000 to 5,000 cells per well according to the doubling times of specific cell line. Test agents were then added in 10-fold dilutions (0,01 to 100 µM) and incubated for further 72 h. […] After 72 h of incubation, the cell growth rate was evaluated by performing the MTT assay: experimentally determined absorbance values were transformed into a cell percentage growth (PG) using the formulas proposed by NIH and described previously. This method directly relies on control of untreated cells at the day of substances addition because it compares the growth of treated cells with the growth of untreated cells in control wells on the same plate—the results are therefore a percentile difference from the calculated expected value. […] The results were statistically analyzed (ANOVA, Tukey post-hoc test at p < 0.05). […]

COC(=O)c1ncn(CCN2CCCCC2)c1C(=O)OC [Compound 2, 1-(2-Piperidin-1-yl-ethyl)-1H-imidazole-4,5-dicarboxylic acid dimethyl ester]
IC50 [1]: > 100 µM | IC50 [2]: > 100 µM | IC50 [3]: > 100 µM | IC50 [4]: > 100 µM | IC50 [5]: > 100 µM

COC(=O)c1ncn(CCN2CCOCC2)c1C(=O)OC [Compound 1, 1-(2-Morpholin-4-yl-ethyl)-1H-imidazole-4,5-dicarboxylic acid dimethyl ester]
Cytotoxicity on human normal fibroblasts (BJ) [1]: no concomitant cytotoxic effects | IC50 [1]: > 100 µM | IC50 [2]: > 100 µM | IC50 [3]: 24 µM | IC50 [4]: > 100 µM | IC50 [5]: > 100 µM

NC(=O)c1ncn(CCN2CCOCC2)c1C(N)=O [Compound 5, 1-(2-Morpholin-4-yl-ethyl)-1H-imidazole-4,5-dicarboxylic acid diamide]
Cytotoxicity on human normal fibroblasts (BJ) [1]: no concomitant cytotoxic effects | IC50 [1]: > 100 µM | IC50 [2]: > 100 µM | IC50 [3]: 32 µM | melting point: 196 to 197 °C | IC50 [4]: > 100 µM | IC50 [5]: > 100 µM

N=c1[nH]c(=O)c2ncn(CCN3CCOCC3)c2c(=O)[nH]1 [Compound 9, 6-Imino-1-(2-morpholin-4-yl-ethyl)-6,7-dihydro-1H,5H-1,3,5,7-tetraaza-azulene-4,8-dione]
IC50 [1]: > 100 µM | IC50 [2]: > 100 µM | IC50 [3]: > 100 µM | melting point: > 300 °C | IC50 [4]: > 100 µM | IC50 [5]: > 100 µM

N=c1[nH]c(=O)c2ncn(CCN3CCCC3)c2c(=O)[nH]1 [Compound 11, 6-Imino-1-(2-pyrrolidin-1-yl-ethyl)-6,7-dihydro-1H,5H-1,3,5,7-tetraaza-azulene-4,8-dione]
IC50 [1]: > 100 µM | IC50 [2]: > 100 µM | IC50 [3]: > 100 µM | IC50 [4]: > 100 µM | IC50 [5]: 20 µM

N=c1[nH]c(=O)c2ncn(CCN3CCCCC3)c2c(=O)[nH]1 [Compound 10, 6-Imino-1-(2-piperidin-1-yl-ethyl)-6,7-dihydro-1H,5H-1,3,5,7-tetraaza-azulene-4,8-dione]
IC50 [1]: > 100 µM | IC50 [2]: > 100 µM | IC50 [3]: 31 µM | melting point: > 300 °C | IC50 [4]: 41 µM | IC50 [5]: 31 µM | Antiproliferative effect on tested cell lines [6]: moderate non-selective antiproliferative activity

COC(=O)c1ncn(CCN2CCCC2)c1C(=O)OC [Compound 3, 1-(2-Pyrrolidin-1-yl-ethyl)-1H-imidazole-4,5-dicarboxylic acid dimethyl ester]
Cytotoxicity on human normal fibroblasts (BJ) [1]: no apparent cytotoxicity | IC50 [1]: > 100 µM | IC50 [2]: > 100 µM | IC50 [3]: 9.5 µM | IC50 [4]: > 100 µM | IC50 [5]: > 100 µM

NC(=O)c1ncn(CCN2CCCCC2)c1C(N)=O [Compound 6, 1-(2-Piperidin-1-il-etil)-1H-imidazol-4,5-diamide]
IC50 [1]: > 100 µM | IC50 [2]: > 100 µM | IC50 [3]: > 100 µM | melting point: 200 to 201 °C | IC50 [4]: > 100 µM | IC50 [5]: > 100 µM

COC(=O)c1ncn(CCCN(C)C)c1C(=O)OC [Compound 4, 1-(3-Dimethylamino-propyl)-1H-imidazole-4,5-dicarboxylic acid dimethyl ester]
IC50 [1]: > 100 µM | IC50 [2]: > 100 µM | IC50 [3]: > 100 µM | IC50 [4]: > 100 µM | IC50 [5]: > 100 µM

CN(C)CCCn1cnc(C(N)=O)c1C(N)=O [Compound 8, 1-(3-Dimethylamino-propyl)-1H-imidazole-4,5-dicarboxylic acid diamide]
IC50 [1]: > 100 µM | IC50 [2]: > 100 µM | IC50 [3]: > 100 µM | melting point: 205 to 210 °C | IC50 [4]: > 100 µM | IC50 [5]: > 100 µM

COC(=O)c1ncn(CCN2CCOCC2)c1C(=O)NC(=N)NC(=O)Nc1ccccc1F [Compound 12, 5-({[3-(2-Fluoro-phenyl)-ureido]-imino-methyl}-carbamoyl)-1-(2-morpholin-4-yl-ethyl)-1H-imidazole-4-carboxylic acid methyl ester]
IC50 [1]: > 100 µM | IC50 [2]: > 100 µM | IC50 [3]: > 100 µM | melting point: > 164 °C | IC50 [4]: > 100 µM | IC50 [5]: > 100 µM
